In data set [1] the test system is K562. Briefly: Antiproliferative activity against human K562 cells incubated for 72 hrs by MTT assay. The data set is classed as functional, cell-based. The settings on record: K562, 72 h. On the technique in general: Tetrazolium dyes change colour on reduction, which living cells bring about.
Data set [2] deals with B16-F10. The data set is described as follows: Antiproliferative activity against mouse B16-F10 cells incubated for 72 hrs by MTT assay. Format: functional, cell-based. The settings on record: B16-F10, 72 h.
Data set [3] is described as follows: Antiproliferative activity against human HFL1 cells incubated for 72 hrs by MTT assay. The data set is classed as toxicity, cell-based.
Data set [4] relates to MCF7. Briefly: cells. The settings on record: Homo sapiens, MCF7, 72 h.
Description: Antiproliferative activity against human MCF7 cells incubated for 72 hrs by MTT assay
Data set [5] has as its system MDA-MB-231. Briefly: cells. The settings on record: Homo sapiens, MDA-MB-231, 72 h.
Description: Antiproliferative activity against human MDA-MB-231 cells incubated for 72 hrs by MTT assay
The subject of data set [6] is A549. The data set is described as follows: cells. The settings on record: Homo sapiens, A549, 72 h.
Description: Antiproliferative activity against human A549 cells incubated for 72 hrs by MTT assay
For data set [7], the system named is A2780. The data set is described as follows: cells. The settings on record: Homo sapiens, A2780, 72 h.
Description: Antiproliferative activity against human A2780 cells incubated for 72 hrs by MTT assay
Data set [8] concerns H22. The data set is described as follows: Antitumor activity against mouse H22 cells allografted in ICR mouse assessed as tumor growth inhibition at 20 mg/kg, iv qd for 17 days consecutively relative to control. The data set is classed as functional. The settings on record: time 17 day, read-out: TGI.
In data set [9] the test system is K562. The data set is described as follows: Antiproliferative activity against human K562 cells assessed as cell inhibition rate at 1 uM incubated for 72 hrs by MTT assay relative to control. Format: functional.
Data set [10] relates to K562. The data set is described as follows: Antiproliferative activity against human K562 cells assessed as cell inhibition rate at 0.1 uM incubated for 72 hrs by MTT assay relative to control. Format: functional.
Data set [11] relates to K562. The data set is described as follows: Antiproliferative activity against human K562 cells assessed as cell inhibition rate at 0.01 uM incubated for 72 hrs by MTT assay relative to control. Format: functional.
For data set [12], the target named is Histone deacetylase 1 (Homo sapiens, UniProt Q13547). The data set is described as follows: Inhibition of HDAC1 derived from human HeLa cell extract using Ac-Leu-Gly-Lys (Ac)-AMC as substrate by fluorescence based assay. Format: cell-free.
Chain of Histone deacetylase 1 (Q13547 whole entry): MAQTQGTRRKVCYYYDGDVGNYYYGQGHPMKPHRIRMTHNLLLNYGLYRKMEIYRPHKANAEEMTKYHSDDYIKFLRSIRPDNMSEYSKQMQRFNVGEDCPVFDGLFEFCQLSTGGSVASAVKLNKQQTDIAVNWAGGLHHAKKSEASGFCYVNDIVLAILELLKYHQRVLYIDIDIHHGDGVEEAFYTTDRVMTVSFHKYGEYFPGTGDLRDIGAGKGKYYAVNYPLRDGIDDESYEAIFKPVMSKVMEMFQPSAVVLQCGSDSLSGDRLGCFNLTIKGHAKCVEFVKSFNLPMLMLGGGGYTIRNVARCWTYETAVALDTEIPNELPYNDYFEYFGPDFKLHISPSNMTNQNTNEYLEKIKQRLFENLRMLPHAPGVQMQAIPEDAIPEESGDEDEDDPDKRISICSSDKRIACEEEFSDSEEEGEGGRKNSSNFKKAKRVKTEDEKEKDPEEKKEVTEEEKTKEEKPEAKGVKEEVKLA
In data set [13] the target is Histone deacetylase 2 (Homo sapiens, UniProt Q92769). The data set is described as follows: Inhibition of HDAC2 derived from human HeLa cell extract using Ac-Leu-Gly-Lys (Ac)-AMC as substrate by fluorescence based assay.
Chain of Histone deacetylase 2 (Q92769 whole entry): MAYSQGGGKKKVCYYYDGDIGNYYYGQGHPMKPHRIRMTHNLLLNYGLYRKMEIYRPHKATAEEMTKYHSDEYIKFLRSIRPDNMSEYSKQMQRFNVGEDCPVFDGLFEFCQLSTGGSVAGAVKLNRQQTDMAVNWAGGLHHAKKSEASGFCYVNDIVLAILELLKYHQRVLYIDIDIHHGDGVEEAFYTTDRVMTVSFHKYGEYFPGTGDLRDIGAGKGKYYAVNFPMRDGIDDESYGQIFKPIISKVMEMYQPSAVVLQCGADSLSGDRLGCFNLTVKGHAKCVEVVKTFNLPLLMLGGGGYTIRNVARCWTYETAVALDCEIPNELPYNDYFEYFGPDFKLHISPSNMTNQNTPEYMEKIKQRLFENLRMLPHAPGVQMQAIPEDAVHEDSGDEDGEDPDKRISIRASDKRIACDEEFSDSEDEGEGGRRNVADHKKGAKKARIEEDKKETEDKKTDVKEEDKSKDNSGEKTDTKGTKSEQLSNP
Data set [14] deals with Histone deacetylase 3 (Homo sapiens, UniProt O15379). The data set is described as follows: Inhibition of HDAC3 derived from human HeLa cell extract using Ac-Leu-Gly-Lys (Ac)-AMC as substrate by fluorescence based assay. The data set is classed as cell-free.
Chain of Histone deacetylase 3 (O15379 whole entry): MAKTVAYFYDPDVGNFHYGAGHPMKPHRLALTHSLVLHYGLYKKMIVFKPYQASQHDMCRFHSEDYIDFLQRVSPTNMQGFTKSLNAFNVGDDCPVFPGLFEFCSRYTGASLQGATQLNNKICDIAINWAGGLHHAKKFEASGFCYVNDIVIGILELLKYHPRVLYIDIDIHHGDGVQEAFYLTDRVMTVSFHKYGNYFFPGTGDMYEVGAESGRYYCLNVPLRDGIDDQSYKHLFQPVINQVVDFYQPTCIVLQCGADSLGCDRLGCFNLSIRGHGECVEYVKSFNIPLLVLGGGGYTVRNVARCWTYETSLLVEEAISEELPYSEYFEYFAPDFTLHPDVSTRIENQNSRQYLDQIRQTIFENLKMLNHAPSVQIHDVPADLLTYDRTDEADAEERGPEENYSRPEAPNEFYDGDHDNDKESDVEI
The target of data set [15] is T1, Protein deacetylase HDAC6 (Homo sapiens, UniProt Q9UBN7).
T1 sequence (Q9UBN7 whole entry): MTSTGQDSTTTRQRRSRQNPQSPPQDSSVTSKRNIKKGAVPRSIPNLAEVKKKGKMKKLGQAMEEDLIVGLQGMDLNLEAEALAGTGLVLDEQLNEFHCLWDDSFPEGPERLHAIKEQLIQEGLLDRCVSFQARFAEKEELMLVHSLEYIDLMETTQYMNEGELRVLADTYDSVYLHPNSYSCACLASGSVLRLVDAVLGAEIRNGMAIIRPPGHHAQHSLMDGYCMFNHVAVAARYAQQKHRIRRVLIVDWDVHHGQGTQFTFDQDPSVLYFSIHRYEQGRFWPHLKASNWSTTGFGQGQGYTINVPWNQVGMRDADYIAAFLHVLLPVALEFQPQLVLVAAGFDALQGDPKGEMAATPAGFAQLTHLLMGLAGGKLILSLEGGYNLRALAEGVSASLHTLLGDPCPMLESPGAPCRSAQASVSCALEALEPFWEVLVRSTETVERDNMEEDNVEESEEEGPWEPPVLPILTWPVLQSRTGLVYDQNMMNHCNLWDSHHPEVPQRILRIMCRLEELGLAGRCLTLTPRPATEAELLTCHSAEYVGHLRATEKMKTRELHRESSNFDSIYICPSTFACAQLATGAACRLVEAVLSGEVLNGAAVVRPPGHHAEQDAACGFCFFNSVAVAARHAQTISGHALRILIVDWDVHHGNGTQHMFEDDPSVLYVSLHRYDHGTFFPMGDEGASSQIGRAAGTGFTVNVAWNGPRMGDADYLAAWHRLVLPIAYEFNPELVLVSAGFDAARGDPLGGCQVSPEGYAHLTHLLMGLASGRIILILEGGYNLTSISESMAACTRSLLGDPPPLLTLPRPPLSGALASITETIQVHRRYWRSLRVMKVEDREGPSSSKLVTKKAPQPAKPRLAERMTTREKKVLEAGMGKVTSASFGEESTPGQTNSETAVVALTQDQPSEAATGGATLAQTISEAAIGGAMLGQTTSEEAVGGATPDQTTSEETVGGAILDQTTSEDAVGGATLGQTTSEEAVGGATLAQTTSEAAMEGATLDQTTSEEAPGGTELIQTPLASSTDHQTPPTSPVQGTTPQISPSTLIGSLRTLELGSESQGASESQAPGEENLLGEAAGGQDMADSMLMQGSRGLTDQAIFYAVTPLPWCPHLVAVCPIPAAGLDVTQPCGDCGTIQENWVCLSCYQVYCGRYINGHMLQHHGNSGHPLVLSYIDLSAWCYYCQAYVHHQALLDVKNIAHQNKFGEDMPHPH
Briefly: Inhibition of HDAC6 derived from human HeLa cell extract using Ac-Leu-Gly-Lys (Ac)-AMC as substrate by fluorescence based assay. Format: cell-free.

For data set [16], the target named is T2, Histone deacetylase 7 (Homo sapiens, UniProt Q8WUI4).
T2 sequence (Q8WUI4 whole entry): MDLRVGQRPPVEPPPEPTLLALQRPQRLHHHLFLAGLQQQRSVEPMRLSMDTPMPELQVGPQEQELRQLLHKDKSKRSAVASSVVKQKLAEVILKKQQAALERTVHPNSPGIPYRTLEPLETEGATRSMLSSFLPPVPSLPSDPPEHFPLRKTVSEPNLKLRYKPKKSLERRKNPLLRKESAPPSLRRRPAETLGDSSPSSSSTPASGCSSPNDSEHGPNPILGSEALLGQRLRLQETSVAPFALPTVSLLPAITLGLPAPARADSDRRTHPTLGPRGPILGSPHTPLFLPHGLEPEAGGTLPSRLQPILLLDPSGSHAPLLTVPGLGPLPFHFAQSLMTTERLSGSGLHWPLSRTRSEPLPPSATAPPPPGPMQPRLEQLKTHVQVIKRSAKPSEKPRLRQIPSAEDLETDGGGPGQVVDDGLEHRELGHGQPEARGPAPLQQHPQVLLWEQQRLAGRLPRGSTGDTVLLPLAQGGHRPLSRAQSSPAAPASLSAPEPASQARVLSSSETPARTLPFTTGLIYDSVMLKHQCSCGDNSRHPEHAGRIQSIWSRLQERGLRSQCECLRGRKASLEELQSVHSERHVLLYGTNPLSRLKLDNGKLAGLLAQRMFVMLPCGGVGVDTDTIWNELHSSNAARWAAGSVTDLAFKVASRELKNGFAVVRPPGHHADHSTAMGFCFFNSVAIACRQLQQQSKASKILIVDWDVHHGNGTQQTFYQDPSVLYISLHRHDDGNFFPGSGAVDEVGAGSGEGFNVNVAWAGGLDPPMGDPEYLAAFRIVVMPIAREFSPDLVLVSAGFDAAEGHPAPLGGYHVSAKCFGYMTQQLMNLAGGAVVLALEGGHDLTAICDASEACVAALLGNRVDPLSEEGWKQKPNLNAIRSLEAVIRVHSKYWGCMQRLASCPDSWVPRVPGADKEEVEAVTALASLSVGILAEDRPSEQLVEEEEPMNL
The data set is described as follows: Inhibition of HDAC7 derived from human HeLa cell extract using Ac-Leu-Gly-Lys (Ac)-AMC as substrate by fluorescence based assay. The data set is classed as cell-free.

The term pIC50 denotes −log10 of the IC50, conventionally taken in molar units. A word on the IC50: it is the concentration needed to halve the response being measured. Lower therefore signals inhibition by little substance. As usually defined, the inhibition is the drop in the measured response relative to a control, in per cent.

pIC50: −log10 of the molar value. Some results are limits rather than exact numbers.

`C=C(c1cc(C)nc(C)c1)c1ccc(OC)c(OC(C)C(=O)NO)c1` (stereo unspecified): the pIC50 was 7.72 in [1]; 7.14 in [2]; 7.72 in [4]; 7.00 in data set [5]; 7.10 in [6]; 7.64 in data set [7]. Also, in data set [3], the IC50 at 72 h was determined as 213 nM.
Turning to `C=C(c1ccc(OC)c(O)c1)c1cc(C)nc2ccccc12`, the inhibition in vivo at 20 mg/kg in data set [8] amounted to 64.1%.
In the case of `C=C(c1ccc(OC)c(OC(C)(C)C(=O)NO)c1)c1cc(C)nc2ccccc12`, the pIC50 in data set [1] was 8.30; in data set [2] it was 8.40; in [4], 7.36; in [5] it was 7.51; in [6] it was 8.05; in data set [7] it was 8.10. In data set [3], this compound returned an IC50 at 72 h of 103 nM.
Take `COc1ccc(/C=C\c2cc(OC)c(OC)c(OC)c2)cc1O` [COMBRETASTATIN A4]: the inhibition at 1 µM in data set [9] is 95%. The inhibition at 0.1 µM in [10] came to 88.4%. The inhibition at 0.01 µM in data set [11] stood at 86.6%. Besides, the pIC50 in [1] was 8.15; in [2] it was 8.15; in data set [4] it was 7.15; in data set [5], 7.54; in [6], 8.70. The half-inhibitory concentration (IC50) at 72 h in [3] was 82 nM.
As for `C=C(c1ccc(OC)c(OCC(=O)NO)c1)c1cc(C)nc2ccccc12`, the pIC50 in data set [1] was 8.10; in [2], 7.55; in data set [4], 7.26; in [5], 7.49; in data set [6], 7.42; in [7], 7.80. Besides, the IC50 at 72 h in data set [3] came out at 195 nM.
As for `C=C(c1ccc(OC)c(/C=C/C(=O)NO)c1)c1cc(C)nc2ccccc12`, the pIC50 in data set [1] was 7.38; in [2] it was 7.82; in data set [4], 7.77; in data set [5], 7.96; in [6], 8.05; in [7], 8.30. In addition, in data set [3], inhibition was half-maximal at 311 nM (IC50 at 72 h).
On to `C=C(c1ccc(OC)cc1)c1cc(/C=C/C(=O)NO)nc2ccccc12`, for which the inhibition at 1 µM in data set [9] came out at 43.5%. Besides, the inhibition at 0.1 µM in [10] amounted to 6.82%. Further, the inhibition at 0.01 µM in data set [11] was 1.41%.
Turning to `C=C(c1ccc(OC)c(OC(C)C(=O)NO)c1)c1cc(C)nc2ccccc12` (stereo unspecified), the pIC50 was 8.15 in data set [1]; 7.52 in data set [2]; 5.83 in [12]; 5.63 in [13]; 5.05 in data set [14]; 5.33 in data set [15]. Moreover, the pIC50 was < 5.00 in data set [16]; 7.66 in data set [4]; 7.55 in data set [5]; 7.82 in data set [6]; 7.85 in data set [7]. Moreover, in data set [3], the 50% inhibitory concentration (IC50) at 72 h turned out to be 95 nM.
In the case of `C=C(c1ccc2[nH]ccc2c1)c1cc(/C=C/C(=O)NO)nc2ccccc12`, in data set [9], the inhibition at 1 µM came out at 4.78%. In addition, the inhibition at 0.1 µM in data set [10] was determined as 3.73%. Moreover, in [11], the inhibition at 0.01 µM worked out at 3.16%.
With `C=C(c1cc(C)nc(C)c1)c1ccc(OC)c(OCC(=O)NO)c1`, the pIC50 in data set [1] was 7.59; in data set [2] it was 7.01; in [4], 7.28; in [5], 6.95; in [6], 7.16; in data set [7] it was 7.44. The compound further returned an IC50 at 72 h in data set [3] of 264 nM.
For `C=C(c1ccc(OC)c(O)c1)c1cc(COCC(=O)NO)nc2ccccc12`, in [9], the inhibition at 1 µM was 71.5%. In [10], the inhibition at 0.1 µM is 6.41%. Further, the inhibition at 0.01 µM in [11] amounted to 0.83%.

The values above are taken from ChEMBL document CHEMBL5620374, “Synthesis and bioevaluation of novel stilbene-based derivatives as tubulin/HDAC dual-target inhibitors with potent antitumor activities in vitro and in vivo” (Eur J Med Chem, 2023).
